Values of other authors in US10272130B1, “Oral anaerobic glutathione supplement in liposome suspension” (priority 2017, dated 2019).

Experiments:
[1] = in vivo

CC(=O)N[C@@H](CS)C(=O)O [NAC, N-acetylcysteine]
half-life [1]: approximately 5.6 hours | renally excreted by the body [1]: 30% | pregnancy risk category (in vivo): category B | adverse effects associated with administration (orally administered or inhaled): drowsiness, stomatitis, clamminess, rhinorrhea, and hemoptysis
